Assay results as given in patent publication US12508280B2, “Formulations for improving gut health” (DSM IP ASSETS B.V., priority 2018, dated 2025).

Key:
[1] = test system: caecum content metagenome; test: Broiler feeding trial, cecal metagenomic analysis (KEGG and SEED functional genes); assay type: in vivo, chickens; details: treated groups (B and C) vs control group (A)
Experimental: The DNA are being extracted from each sample of caecum content using a bead-beating procedure. Briefly, 0.25 g of cecal content are suspended in 1 ml lysis buffer (500 mM NaCl, 50 mM Tris-Cl, pH 8.0, 50 mM EDTA, 4% SDS) with MagNA Lyser Green Beads (Roche, Milan, Italy) and homogenized on the MagNA Lyser (Roche) for 25 sec at 6500 rpm. The samples are then heated at 70° C. for 15 min, followed by centrifugation to separate the DNA from the bacterial cellular debris. This process is repeated with a second 300 μl aliquot of lysis buffer. The samples are then subjected to 10 M v/v ammonium acetate (Sigma, Milan, Italy) precipitation, followed by isopropanol (Sigma) precipitation and a 70% ethanol (Carlo Erba, Milan, Italy) wash and re-suspended in 100 ul 1× Tris-EDTA (Sigma). The samples are then treated with DNase-free RNase (Roche) and incubated overnight at 4° C., before being processed through the QIAmp® DNA Stool Mini Kit (Qiagen, Milan, Italy) according to manufacturer's directions with some modifications. Samples are measured on a BioSpectrometer® (Eppendorf, Milan, Italy) to assess DNA quantity and quality. […]
Filtering and trimming of raw reads were performed using MGRast (MR) (mgrast.org) (Keegan et al., 2016) bioinformatics pipelines. […]

[2] = test system: Pepsin, pancreatin, viscozyme; test: In vitro enzymatic digestion with exogenous enzymes; assay type: biochemical
Experimental: Erlenmeyer flasks (100 mL total volume) contained 0.5 g of substrate alone or supplemented with the three eubiotics were incubated in duplicates for each treatment, to determine the in vitro enzymatic digestibility following the three-step method of Boisen and Fernandez (1997). The digestibility was determined with: • [1] Pepsin • [2] Pepsin+pancreatin • [3] Pepsin+pancreatin+viscozyme B. With Gastric Contents and Small Intestine Contents
For gas production, results were analyzed for each incubation time as a split-plot design, considering the donor pig as a block, the contents (fresh vs. frozen) as the main plot and the treatment as the subplot. The same design was used to analyze the results obtained from digestive contents (gastric vs. small intestine) as the main plot. In vitro enzymatic results were not statistically analyzed as there were no sources of experimental variability. Differences were considered significant when P<0.05, and a trend for significance was considered when 0.05 ? P<0.10 and, when significant, differences were compared by the Tukey t test at P<0.05.

litter microbiota = test: Broiler feeding trial, litter microbiota; assay type: in vivo, chickens; details: groups A, B, C
Excerpt: Each group was sampled three times (i.e., S1=14 days, S2=28 days, S3=38/42 days) in specific days corresponding to when the feed will be changed along the feeding program.
During each sampling (i.e., S1, S2 and S3) a total of 40 birds/group were humanely euthanized and 9 litter samples will be collected (i.e., 3 samples/group).
16S rRNA gene PCR amplification and sequencing. The V3-V4 hypervariable region of the 16S rRNA gene was PCR-amplified using 341F and 785R primers with Illumina overhang adaptors sequences. Amplicons purification was performed by using AMPure XP Beads magnetic beads (Beckman Coulter, Brea, CA). For the indexed library preparation, the Nextera XT DNA Library Prep Kit (Illumina, San Diego, CA) was used. A further magnetic beads purification step was performed and libraries quantified using the Qubit 3.0 fluorimeter (Invitrogen), then pooled at 4 nM. The library pool was denatured with NaOH 0.2 N and diluted to 6 μM. […]
Bioinformatics and statistics. […] After chimera sequences removal, high-quality reads were filtered and binned into high-resolution operational taxonomic units (OTUs) according to the taxonomic threshold of 99% through an open-reference strategy performed with dada2 (Callahan et al, 2016). […] Alpha diversity was measured using Faith PD index and number of observed OTUs. […]

[3] = test system: Co-cultures of Caco-2 and HT29-MTX-E12 cells; test: Barrier integrity (TEER), healthy gut model; assay type: cell-based; details: 48 h minus 0 h fermentation samples, vs corresponding control
Experimental: Co-cultures of Caco-2 and HT29-MTX-E12 cells were used to assess the protective effect of the supernatants before (0 h) and after fermentation (48 h) for both sets of in vitro experiments above.
CaCo-2 ECACC 86010202 and HT29-MTX-E12 ECACC 12040401 cells (both from European Collection of Cell Cultures, Salisbury, UK) were both cultured at 37° C., in atmosphere of 5% CO2 in DMEM medium supplemented with 4.5 g/L D-Glucose, 4 mM L-Glutamine, 1 mM Sodium Pyruvate, 1% MEM Non-Essential Amino Acids, 50 μg/mL Gentamicin (Life Technologies Europe B.V., Zug, Switzerland) and 10% heat-inactivated FBS (Sigma-Aldrich, Buchs, Switzerland). Sub-confluent cells were trypsinized using 0.25% Trypsin/EDTA (Life Technologies Europe B.V., Zug, Switzerland) and passaged at a ratio of 1:5-1:10 twice a week. Cells between passages 55 and 85 were used for this study.
Cells were seeded at a density of 20000 cells/well in a 7:3 ratio (Caco-2:HT29-MTX-E12) in Corning HTS Transwell-24 system PET membranes, 0.4 μM pore size, cell growth area 0.33 cm2/well (Corning BV, Amsterdam, Netherlands) and cultured as described above. Media was changed every second to third day.
For both sets of in vitro experiments, after cells being 13 days in culture, initial transepithelial electrical resistance (TEER) readings were obtained using an EVOM2 Voltohmmeter (EVOM, World Precision Instruments, Berlin) equipped with STX100 Electrodes. TEER values correlate with the tightness of the confluent monolayer (Srinivasan et al. 2015).
The background TEER (insert) was subtracted from total TEER (cell monolayer plus insert) to yield the monolayer resistance and then normalized to surface area by multiplying with the area of the insert (Srinivasan et al. 2015). The integrity of the monolayer was determined at basal level by measuring TEER. A TEER of 300 Ωcm2 was regarded as a tight monolayer (see results section). Afterwards, the cells were treated with sterile filtered fermentation supernatants or fermentation medium as a control (diluted 1:20 in growth media). After 24 h incubation the resistance across each cell monolayer was measured again and the percentage change in TEER compared to initial TEER for each insert was calculated to represent a healthy gut model. All TEER measurements were done by placing the plates containing the inserts on a 37° C. warming plate and were performed in the same duration.

Bifidobacterium = test: Microbiome composition by shotgun sequencing: Bifidobacterium (first set); assay type: cell-based, human; details: after 24 h fermentation, vs corresponding control

Compound | PCA of functional features (6361 features, 63 samples) [1] | substrate digestibility incubated in (P+Pancreatin) and/or (P+P+Viscozyme) [2] | substrate digestibility incubated in pepsin-HCl [2] | litter microbiome bacterial composition and species richness/diversity (litter microbiota) | TEER, healthy gut cellular model ([3]; 1× dose) | TEER, healthy gut cellular model ([3]; 5× dose) | Bifidobacterium relative abundance (Bifidobacterium; 0.2× dose) | Bifidobacterium relative abundance (Bifidobacterium; 1× dose) | Bifidobacterium relative abundance (Bifidobacterium; 5× dose)
Cc1cc2nc3c(=O)[nH]c(=O)nc-3n(C[C@H](O)[C@H](O)[C@H](O)CO)c2cc1C [Vitamin B2, riboflavin] | clear visible separation | no differences among treatments were observed | higher than that of other treatments | no significant differences |  |  |  |  | 
Vitamin E |  |  |  |  | increase TEER | increase TEER | increase Bifidobacterium relative abundance | increase Bifidobacterium relative abundance | increase Bifidobacterium relative abundance
